Experimental data: PubChem BioAssay (NCI)
Where “and” joins values, the source holds several entries; their conditions need not be identical. Identical values can stand only once.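 Following 48 hours of exposure in 96-well plates, responses at five concentrations were used to interpolate endpoints linearly. The concentration for 50% growth inhibition is given as GI50. The concentration for full growth arrest is given as TGI.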

Legend:
Assay in all cases: inhibition of tumour cell growth, NCI panel, 48 h
SK-OV-3 ovarian = system: SK-OV-3 ovarian
HCC-2998 colon = system: HCC-2998 colon
OVCAR-4 ovarian = system: OVCAR-4 ovarian
T-47D breast = system: T-47D breast
MDA-MB-231 breast = system: MDA-MB-231 breast
SF-268 CNS = system: SF-268 CNS
HCT-116 colon = system: HCT-116 colon
MALME-3M melanoma = system: MALME-3M melanoma

Structure (SMILES) | GI50 (SK-OV-3 ovarian) | TGI (SK-OV-3 ovarian) | GI50 (HCC-2998 colon) | TGI (HCC-2998 colon) | GI50 (OVCAR-4 ovarian) | TGI (OVCAR-4 ovarian) | GI50 (T-47D breast) | TGI (T-47D breast) | GI50 (MDA-MB-231 breast) | TGI (MDA-MB-231 breast) | GI50 (SF-268 CNS) | TGI (SF-268 CNS) | GI50 (HCT-116 colon) | TGI (HCT-116 colon) | GI50 (MALME-3M melanoma) | TGI (MALME-3M melanoma)
CC(=O)O[C@H]1C(=O)[C@@]2(C)[C@H]([C@H](OC(=O)c3ccccc3)[C@]3([O-])C[C@H](OC(=O)[C@H]([O-])[C@@H](NC(=O)c4ccccc4)c4ccccc4)C(C)=C1C3(C)C)[C@]1(OC(C)=O)CO[C@@H]1C[C@@H]2[O-].[Fe+3] | 0.0724 µM and 0.142 µM | 11.9 µM and > 100 µM | 0.0365 µM | 0.295 µM | 0.719 µM | > 100 µM | 0.0802 µM and 0.0744 µM | 65 µM and 95.7 µM | 0.746 µM and 0.732 µM | 63.9 µM and 32.2 µM | 0.104 µM and 0.165 µM | 45.3 µM and > 100 µM | 0.0253 µM and 0.0388 µM |  |  | 
COc1ccc2c(c1)C=CC(C#N)N2C(=O)c1ccccc1 (configuration not stated) | < 0.01 µM | > 100 µM | 0.0129 µM | > 100 µM | 0.0283 µM | > 100 µM |  |  | < 0.01 µM | 3.14 µM | 0.488 µM | > 100 µM | < 0.01 µM | > 100 µM |  | 
O=C(Nc1cc(-c2ccccc2)[nH]n1)c1ccc(Cl)cc1 | 3.67 µM | > 100 µM | > 100 µM | > 100 µM | > 100 µM | > 100 µM |  |  | 30.4 µM | > 100 µM | 28.6 µM | > 100 µM | 9.22 µM | > 100 µM | 12.1 µM | > 100 µM
C=CCOc1c(Br)cc(Br)cc1Br | 55.5 µM | > 100 µM | 46.4 µM | > 100 µM | 13.6 µM | 39.9 µM | 31.4 µM | > 100 µM | 6.7 µM | > 100 µM | 21.1 µM | > 100 µM | 11.4 µM | 66.2 µM |  | 
CN(C)c1nc(-c2cccs2)n2nc(-c3ccc(Cl)cc3)cc2n1 |  |  | > 100 µM | > 100 µM |  |  |  |  | 3.7 µM | > 100 µM | 21.3 µM | > 100 µM | 2.43 µM | > 100 µM |  | 
COc1ccccc1C(=O)c1ccc2ccccc2c1 |  |  |  | > 100 µM |  | > 100 µM |  |  |  | > 100 µM |  | > 100 µM |  | > 100 µM |  | 42.6 µM
CCOC(=O)[C@@H](C)C[C@H](Cc1ccccc1)NC(=O)c1csc([C@@H](C[C@H](C(C)C)N(C)C(=O)[C@@H](NC(=O)[C@H]2CCCCN2C)C(C)(C)C)OC(C)=O)n1 | < 0.00167 µM | > 16.7 µM | < 0.00167 µM |  | 0.00328 µM | > 16.7 µM |  |  | < 0.00167 µM | 0.647 µM | < 0.00167 µM | > 16.7 µM | < 0.00167 µM |  | < 0.00167 µM | > 16.7 µM
COC(=O)C(Cc1ccccc1)N/C=C\C(=O)c1ccc(Cl)cc1 (configuration not stated) | 26.7 µM | 92.4 µM | 18.5 µM | 40.1 µM | 50.4 µM | > 100 µM | 37 µM | > 100 µM | 14.4 µM | 40.9 µM | 31.6 µM | 67.4 µM | 16.4 µM | 36.9 µM |  | 
Cc1c(C(=O)NN)nnn1-c1ccnc2c(C(F)(F)F)cccc12 | > 100 µM | > 100 µM | > 100 µM | > 100 µM | 12 µM | 89.4 µM | > 100 µM | > 100 µM | > 100 µM | > 100 µM | > 100 µM | > 100 µM | > 100 µM | > 100 µM |  | 
O=C1c2ccccc2-c2c1c1ccccc1c(=O)n2CCNCCCNCCn1c2c(c3ccccc3c1=O)C(=O)c1ccccc1-2 | 1.21 µM | 4.83 µM |  |  |  |  | 0.719 µM | 2.12 µM | 0.161 µM | 0.548 µM | 0.156 µM | 6.81 µM | < 0.005 µM | 0.262 µM |  | 
Cc1ccc(-c2nc(C(Cl)Cl)n3nc(-c4ccccc4)cc3n2)cc1 | 2.56 µM | > 100 µM |  |  | 0.68 µM | 3.99 µM | 0.505 µM | 3.53 µM | 0.21 µM | 0.678 µM | 1.06 µM | 4.82 µM | 0.258 µM | 0.712 µM | > 100 µM | > 100 µM
Oc1c(Br)cc(CN(Cc2cc(Br)c(O)c(Br)c2)C2CCCCC2)cc1Br |  | > 100 µM |  |  |  | > 100 µM |  | > 100 µM |  | > 100 µM |  | > 100 µM |  | > 100 µM |  | > 100 µM
C=C1C(=O)O[C@H]2[C@H]1CC/C(COC(=O)c1cc3cc(OC)ccc3[nH]1)=C\CC[C@@]1(C)O[C@@H]21 | 4.9 µM | 17.1 µM | 1.54 µM | 2.91 µM | 1.63 µM | 3.24 µM |  |  | 1.58 µM | 3.2 µM | 1.66 µM | 3.65 µM | 0.425 µM | 1.72 µM | 1.61 µM | 3.14 µM
NC(N)=N/N=C/c1c(-c2ccccn2)nc2sc(Cl)cn12 | 9.1 µM | 17.9 µM |  |  |  |  | 8.58 µM | 23.3 µM | 5.64 µM | 11.7 µM | 8.04 µM | 17.8 µM | 8.36 µM | 17.3 µM |  | 
